{"source": "the CATMoS acute toxicity set (Mansouri et al. 2021)", "origin": "cited, not measured here", "note": "Values joined by “and” are separate entries in the source; they are usually repeats but may differ in a detail not shown here. Equal entries are not always repeated. *1 amine or outer side, *2 acyl side, *3 side chain or, on linkers, in order; H or OH if unused. Where a SMILES comes first, the peptide text is derived from it. Bridges are numbered along the chain shown (N, C = ends). Roman numbers before positions name the chains, in order. [ ]: non-standard residue; d: D form. The star is where a group is joined. Actinocin(9to1) = Cc1c2oc3c(C)ccc(C(=O)[*:1])c3nc-2c(C(=O)[*:2])c(N)c1=O; NMeV = CN[C@H](C(=O)O)C(C)C; X1 = CC[C@H](C)CCCCC(=O)*; Dab = NCC[C@H](N)C(=O)O; Sar = CNCC(=O)O", "data": [{"test": "rat acute oral toxicity", "details": "in vivo", "values": [{"smiles": "CCCCCCCOCCOCCO", "LD50": "2940 mg/kg"}, {"smiles": "C=CC(=O)OCC(CO)(COC(=O)C=C)COC(=O)C=C", "LD50": "1830 mg/kg"}, {"smiles": "CCOP(=O)(NC(C)C)SCC(=O)NCOC", "note": "(stereo not drawn)", "LD50": "100 mg/kg"}, {"smiles": "CCN(CC)CCOC(=O)C1(C2CCCCC2)CCCCC1", "LD50": "1290 mg/kg"}, {"smiles": "Cc1cc(CC(=O)O)n(C)c1C(=O)c1ccc(Cl)cc1", "LD50": "27 mg/kg"}, {"smiles": "OCCS", "LD50": "244 mg/kg"}, {"smiles": "CCC(CO)NC(=O)C1C=C2c3cccc4[nH]cc(c34)CC2N(C)C1", "note": "(stereo not drawn)", "LD50": "93 mg/kg"}, {"smiles": "C=CCc1ccc(OC=O)c(OC)c1", "LD50": "3400 mg/kg"}, {"smiles": "C=C(F)CO", "LD50": "130 mg/kg"}, {"smiles": "CCCOC=O", "LD50": "3980 mg/kg"}, {"smiles": "C[N+](C)(C)CCOP(=O)(O)OP(=O)(O)OC[C@H]1O[C@@H](n2ccc(N)nc2=O)[C@H](O)[C@@H]1O", "LD50": "18500 mg/kg"}, {"smiles": "Cc1ccccc1CN(C)N=O", "LD50": "90 mg/kg"}, {"smiles": "CCOc1ccc(C(=O)NCc2ccc(OCCNC)cc2)cc1OCC", "LD50": "3000 mg/kg"}, {"smiles": "CCCCCCCCc1ccc(C(=O)CCN2CCCCC2)cc1", "LD50": "417 mg/kg"}, {"smiles": "CC(=O)OCC[N+](C)(C)C", "LD50": "2500 mg/kg"}, {"smiles": "O=c1[nH]sc2ccccc12", "LD50": "1020 mg/kg"}, {"smiles": "Nc1ccc(OP(=O)(Oc2ccc(N)cc2)Oc2ccc(N)cc2)cc1", "LD50": "138 mg/kg"}, {"smiles": "O=C1N=C2c3ccccc3N=CN2C1=Cc1ccc([N+](=O)[O-])cc1", "LD50": "1290 mg/kg"}, {"smiles": "O=S(=O)(C(Cl)CCl)C(Cl)CCl", "note": "(stereo not drawn)", "LD50": "250 mg/kg"}, {"smiles": "CCC(O)(COC(N)=O)c1ccccc1", "note": "(stereo not drawn)", "LD50": "607 mg/kg"}, {"smiles": "CCCCNC1(P(=O)(OCCCC)OCCCC)CCCCC1", "LD50": "3000 mg/kg"}, {"smiles": "FC(F)(F)c1nc2c(Br)c(Cl)c(Cl)c(Br)c2[nH]1", "LD50": "3.43 mg/kg"}, {"smiles": "CCOC(=O)/C=C/C(=O)OCC", "LD50": "1780 mg/kg"}, {"smiles": "COc1c(Cl)ccc(Cl)c1C(=O)O", "LD50": "6760 mg/kg and 2630 mg/kg"}, {"smiles": "COC(OC)C(C)c1ccccc1", "note": "(stereo not drawn)", "LD50": "1850 mg/kg"}, {"smiles": "CCCOC(C1=NCCCN1)c1ccccc1", "note": "(stereo not drawn)", "LD50": "625 mg/kg"}, {"smiles": "CC1(C)S[C@@H]2[C@H](NC(=O)COc3ccc(Cl)c(Cl)c3)C(=O)N2[C@H]1C(=O)O", "LD50": "2500 mg/kg"}, {"smiles": "CCC(c1ccccc1)c1noc(CCN(CC)CC)n1", "note": "(stereo not drawn)", "LD50": "1400 mg/kg"}, {"smiles": "C[N+](C)(C)CC(O)CC(=O)O", "note": "(stereo not drawn)", "LD50": "6890 mg/kg"}, {"smiles": "C[N+]1(CC[N+]2(C)CC3C4C=CC(CC4)C3C2)CCCC1", "note": "(stereo not drawn)", "LD50": "1810 mg/kg"}, {"smiles": "Nc1nccs1", "LD50": "480 mg/kg"}, {"smiles": "O=S1(=O)CS(=O)(=O)OCO1", "LD50": "300 mg/kg"}, {"smiles": "CN(C)c1cccc2nc3cccc([N+](=O)[O-])c3cc12", "LD50": "24 mg/kg"}, {"smiles": "CC[C@H](C)CCCCC(=O)N[C@@H](CCN)C(=O)N[C@H](C(=O)N[C@@H](CCN)C(=O)N[C@H]1CCNC(=O)[C@@H]([C@H](C)O)NC(=O)[C@H](CCN)NC(=O)[C@H](CCN)NC(=O)[C@H](CC(C)C)NC(=O)[C@@H](CC(C)C)NC(=O)[C@H](CCN)NC1=O)[C@@H](C)O", "note": "(X1-[Dab]T[Dab][Dab][Dab][dL]L[Dab][Dab][dT]; lactam 4-C)", "LD50": "121 mg/kg"}, {"smiles": "CC(C)=CCC1C(=O)N(c2ccccc2)N(c2ccccc2)C1=O", "LD50": "1340 mg/kg"}, {"smiles": "CNC(=O)Oc1c(C(C)C)ccc(C)c1Cl", "LD50": "250 mg/kg"}, {"smiles": "Oc1ccc(C(c2ccc(O)cc2)c2ccccn2)cc1", "LD50": "8550 mg/kg"}, {"smiles": "Nc1ccc(S(=O)(=O)O)c(N)c1", "LD50": "3480 mg/kg"}, {"smiles": "COC1=C(OC)C(=O)C(CCCCCCCCCCO)=C(C)C1=O", "LD50": "10000 mg/kg"}, {"smiles": "COP(=O)(OC)OC(c1ccc(Cl)cc1)P(=O)(OC)OC", "note": "(stereo not drawn)", "LD50": "3200 mg/kg"}, {"smiles": "CCON(CC)N=O", "LD50": "1000 mg/kg"}, {"smiles": "CN(C)C1CSSC1", "LD50": "420 mg/kg"}, {"smiles": "ClC(Cl)(Br)CBr", "LD50": "205 mg/kg"}, {"smiles": "CC(C)(Oc1ccc(Cl)cc1)C(=O)OCCCOC(=O)C(C)(C)Oc1ccc(Cl)cc1", "LD50": "7300 mg/kg"}, {"smiles": "CC(C)(C)CC(C)(C)Nc1ncnc(N(CCCCCCNC2CC(C)(C)NC(C)(C)C2)C2CC(C)(C)NC(C)(C)C2)n1", "LD50": "9910 mg/kg"}, {"smiles": "CC(C)=CC=O", "LD50": "690 mg/kg"}, {"smiles": "Cc1c2oc3c(C)ccc(C(=O)N[C@@H]4C(=O)N[C@H](C(C)C)C(=O)N5CCC[C@H]5C(=O)N(C)CC(=O)N(C)[C@@H](C(C)C)C(=O)O[C@@H]4C)c3nc-2c(C(=O)N[C@@H]2C(=O)N[C@H](C(C)C)C(=O)N3CCC[C@H]3C(=O)N(C)CC(=O)N(C)[C@@H](C(C)C)C(=O)O[C@@H]2C)c(N)c1=O", "note": "(I: T[dV]P[Sar][NMeV] / II: T[dV]P[Sar][NMeV]; ester I:1-I:C, II:1-II:C; linker I:N-II:N via Actinocin(9to1))", "LD50": "7.2 mg/kg"}, {"smiles": "FC(F)(F)C(Cl)(Cl)C(Cl)(Cl)C(F)(F)F", "LD50": "800 mg/kg"}, {"smiles": "CN1[C@@H]2CCC[C@H]1C[C@@H](NC(=O)c1nn(C)c3ccccc13)C2", "LD50": "350 mg/kg"}, {"smiles": "CC(=O)O[C@H]1C[C@@H]2CC[C@@]1(C)C2(C)C", "LD50": "9050 mg/kg"}, {"smiles": "O=C(O)C(c1ccc(Cl)cc1)c1ccc(Cl)cc1", "LD50": "600 mg/kg and 740 mg/kg"}, {"smiles": "CNC(=O)ON=C1SCCSC1(C)C", "LD50": "0.27 mg/kg"}, {"smiles": "CCN(CC)CCOCc1ccc(C)cc1", "LD50": "531 mg/kg"}, {"smiles": "CN(C)CCCN1c2ccccc2Sc2cccnc21", "LD50": "610 mg/kg"}, {"smiles": "CC1(C)CC(NCCC(=O)NC2CC(C)(C)NC(C)(C)C2)CC(C)(C)N1", "LD50": "4180 mg/kg"}, {"smiles": "c1nnc(NCNc2nncs2)s1", "LD50": "260 mg/kg"}, {"smiles": "c1coc(-c2nc3ccccc3[nH]2)c1", "LD50": "500 mg/kg"}, {"smiles": "CNC(=S)/C=C/c1ccc2c(c1)OCO2", "LD50": "230 mg/kg"}, {"smiles": "NNc1ccccc1", "LD50": "188 mg/kg"}, {"smiles": "NC(=O)C(=O)O", "LD50": "21100 mg/kg"}, {"smiles": "O=[N+]([O-])c1c(Cl)c([N+](=O)[O-])c2[nH]c(C(F)(F)F)nc2c1Cl", "LD50": "117 mg/kg"}, {"smiles": "O=C(Oc1ccccc1)c1ccccc1C(=O)Oc1ccccc1", "LD50": "8000 mg/kg"}, {"smiles": "COc1ccc(C(CCCc2ccccc2)N(C)C)cc1OC", "note": "(stereo not drawn)", "LD50": "500 mg/kg"}, {"smiles": "COC1(C)CC(c2ccccc2)c2c(c3ccccc3oc2=O)O1", "note": "(stereo not drawn)", "LD50": "4000 mg/kg"}, {"smiles": "CCC(c1ccccc1)c1c(O)c2ccccc2oc1=O", "note": "(stereo not drawn)", "LD50": "200 mg/kg"}, {"smiles": "Cc1cccc(C(=O)O)c1O", "LD50": "445 mg/kg"}, {"smiles": "NC(=O)OC[C@H](O)[C@@H](O)[C@H](N)C(=O)N[C@@H](C(=O)O)[C@H]1O[C@@H](n2cc(CO)c(=O)[nH]c2=O)[C@H](O)[C@@H]1O", "LD50": "14700 mg/kg"}, {"smiles": "CCOP(=S)(OCC)SCSCSP(=S)(OCC)OCC", "LD50": "8.5 mg/kg"}]}]}
